Experimental data as given in PubChem BioAssay AID493003 (Sanford-Burnham Center for Chemical Genomics, 2010).
The source made the active and inactive calls. How the calls were made is not given here.

The compounds below were run on S. cerevisiae tim10-1 mutant growth, luminescence (assay: growth inhibitors of tim10-1 mutant yeast, dose response, luminescence, S. cerevisiae, uHTS hits (AID 493003);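 further: yeast growth measured after about 22 hours at 25 °C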).
In the case of `O=C(/C(N=Nc1cccc(C(F)(F)F)c1)=C(/O)c1cccs1)C(F)(F)F`, the IC50 is reported as > 100 µM (inactive).
For `Cc1ccc2nc(N3CCN(Cc4nnnn4Cc4ccccc4)CC3)c(C#N)cc2c1`, the IC50 was 81.3 µM.
Compound `Nc1nc(Nc2cccc(C(F)(F)F)c2)nc(C(F)(F)F)n1` has an IC50 of 23.4 µM.
`CCN(CC)c1ncnc2c1ncn2Cc1c(Cl)cccc1Cl` showed an IC50 of 45.9 µM.
Compound `c1ccc(-c2cc(-c3nc4ccccc4[nH]3)c3ccccc3n2)cc1` has an IC50 of 49.6 µM.
Compound `O=C(Nc1nccs1)c1ccc(Br)c(S(=O)(=O)N2CCOCC2)c1` has an IC50 of 27.7 µM.
For `O=C(Nc1cc(Sc2ccccn2)cc([N+](=O)[O-])c1)c1cccc(F)c1`, the IC50 was 88 µM.
`Fc1ccc(CNC(=S)Nc2cccc(C(F)(F)F)c2)cc1` showed an IC50 of 16.1 µM.
With `COC(C/C=C/C(=O)COCc1ccccc1)OC` the IC50 was 37.2 µM.
`CCCCn1nc(NC(=O)c2cccs2)c2cc3ccccc3nc21` showed an IC50 of 73.9 µM.
`Nc1nc(Nc2ccccc2)nc2ccccc12` gave an IC50 of 28.1 µM.
`Cc1nn(Cc2c(F)c(F)c(F)c(F)c2F)c(C)c1NC(=O)c1ccc(COc2ccc(Cl)cc2Cl)o1` was tested, and the IC50 was 25.5 µM.
Compound `CCOc1ccc(-n2cc(-c3ccccc3)c3c(=O)[nH]cnc32)cc1` has an IC50 of 14.9 µM.
For `S=c1[nH]nc(Nc2ccc(Cl)cc2)s1`, the IC50 was 20.8 µM.
Work on `N/C(=N\OC(=O)CCCOc1ccc(Cl)cc1Cl)c1ccncc1` yielded an IC50 of 47.6 µM.
`CC(C)(C)c1ccc(C(=O)c2cn[nH]c2-c2ccccc2O)cc1` showed an IC50 of 52 µM.
`O=C(COC(=O)c1ccccc1C(=O)c1ccccc1)Nc1ccc(SC(F)F)cc1` was tested, and the IC50 was 72.9 µM.
`COc1ccccc1C/C(N)=N/OC(=O)c1ccco1` was tested, and the IC50 was 37.3 µM.
Compound `COc1cccc(C(=O)CSc2nnnn2C2CCCCC2)c1` has an IC50 of 28.2 µM.
Work on `CC(=O)SC1CC(=O)N(c2ccc(C(C)(C)C)cc2)C1=O` (stereo not drawn) yielded an IC50 of 38.8 µM.
`CC1CCCCN1S(=O)(=O)c1ccc2c(c1)CCN2C(=O)C1CCC1` (stereo not drawn) showed an IC50 of 61.7 µM.
For `OCCN1CCN(C2Cc3cc(Cl)ccc3Sc3ccc(Cl)cc32)CC1` (stereo not drawn) (tested in a mixture with another compound), the IC50 was 20.4 µM.
In the case of `CCCCCc1ccc(OCCCC[n+]2ccccc2)c(CCCCC)c1`, the IC50 is reported as 24.8 µM.
Work on `C=CC(C)(C)c1c(O)c(CC=C(C)C)c(O)c2c(=O)c3ccc(O)c(O)c3oc12` yielded an IC50 of 30.7 µM.
Work on `Cc1ccc(S(=O)(=O)Nc2ccc(N=Nc3ccc(O)cc3)cc2)cc1` yielded an IC50 of 20.9 µM.
With `COc1ccc(-c2cc(C3CC3)nc3sc(C#N)c(N)c23)cc1` the IC50 was 12.7 µM.
`COc1ccc(-n2cc(-c3ccccc3)c3c(=S)nc[nH]c32)cc1` gave an IC50 of 13 µM.
`C/C(=N\NC(=S)Nc1cccc(C)c1)c1cc2ccccc2o1` was tested, and the IC50 was 47.7 µM.
For `S=C(Nc1ccc(Cl)cc1)c1nc2ccccc2[nH]1`, the IC50 was 23.7 µM.
Compound `CC1(CC(=O)N/N=C/c2ccc(OCc3ccc(Cl)cc3Cl)cc2)OCCCO1` has an IC50 of 5.77 µM.
Work on `COc1ccc(Br)c(-c2nnc(CS(=O)(=O)c3ccccc3)o2)c1` yielded an IC50 of 28.4 µM.
For `CC(NC(=O)c1cccc(Cl)c1)C1CC2CCC1C2` (stereo not drawn), the IC50 was 42.3 µM.
Compound `Cc1ccccc1NC(=O)CSc1nc(N)c2c3c(sc2n1)CSC(C)(C)C3` has an IC50 of 36.6 µM.
`COc1ccccc1C(=O)Nc1ccc(S(=O)(=O)N2CCCCC2)cc1` was tested, and the IC50 was 24.9 µM.
With `N/C(Cc1ccc(Cl)cc1Cl)=N\OC(=O)Cc1ccc(Cl)cc1` the IC50 was 1.41 µM.
Compound `Cc1ccc(-c2csc(-c3c[nH]c4ccccc34)n2)cc1` has an IC50 of 25.4 µM.
`COc1ccc(-c2cc(C(=O)N3CCN(c4ncccn4)CC3)c3ccccc3n2)c(OC)c1` showed an IC50 of 28.5 µM.
Compound `COc1cccc(-c2nn(C)c3sc(C(=O)N4CCN(c5ccccn5)CC4)cc23)c1` has an IC50 of 46.2 µM.
`O=C(Cc1ccc(Cl)c(Cl)c1)Nc1ccc(SC(F)F)cc1` gave an IC50 of 46.7 µM.
`Cc1cc(N/N=C/c2ccc(Cl)cc2)nc(NCc2ccccc2)n1` showed an IC50 of 36.6 µM.
Compound `CC1CCN(C(=S)c2cn(Cc3ccccc3F)c3ccccc23)CC1` has an IC50 of 35.4 µM.
`COC(=O)C(C(C)=O)C1=C/C(=N\S(=O)(=O)c2ccc(C)cc2)c2ccccc2C1=O` (stereo not drawn) was tested, and the IC50 was 8.03 µM.
`CCN(CC)CCN(C(=O)c1ccc2c(c1)CCCC2)c1nc2ccc(OC)cc2s1` was tested, and the IC50 was 22 µM.
Work on `Cc1ccc(OCC(=O)O/N=C(\N)Cc2ccc(Cl)cc2)cc1` yielded an IC50 of 9.22 µM.
In the case of `COc1cc(/C=N/O)ccc1Oc1ccc([N+](=O)[O-])cc1[N+](=O)[O-]`, the IC50 is reported as 24.4 µM.
In the case of `CC(C)NC(=S)N/N=C1\CCCCC1C1CCCCC1` (stereo not drawn), the IC50 is reported as 37.5 µM.
In the case of `Cc1[nH]n(-c2ccccc2)c(=O)c1C(c1ccccc1[N+](=O)[O-])C(C#N)C#N` (stereo not drawn), the IC50 is reported as 18.2 µM.
`COc1cccc(Nc2ncccc2C(=O)Nc2ccccc2)c1` showed an IC50 of 31.7 µM.
For `O=C(OCn1ncc(Br)c(Br)c1=O)c1ccc(F)cc1`, the IC50 was 3.3 µM.
In the case of `CCOC(=O)c1sc2ncnc(NCc3ccco3)c2c1C`, the IC50 is reported as 30.5 µM.
`Clc1cccc(C2Nc3cccc4cccc(c34)N2)c1Cl` was tested, and the IC50 was 25.7 µM.
`O=C(c1ccc2ncsc2c1)N1CCN(c2cccc(C(F)(F)F)c2)CC1` was tested, and the IC50 was 38.4 µM.
With `O=C(Nc1ccon1)c1cc2c(s1)CCCCCC2` the IC50 was 39.2 µM.
`COC(=O)c1ccc(NC(=O)CN2CCN(S(=O)(=O)c3ccc(Br)cc3)CC2)cc1` gave an IC50 of 61.5 µM.
`Cc1ccc(NC2=C/C(=N\S(=O)(=O)c3cccs3)c3ccccc3C2=O)c(C)c1` showed an IC50 of 3.94 µM.
Compound `O=C(Nc1ccccc1Br)C1CC(=O)N(c2ccc3c4c(cccc24)CC3)C1` (stereo not drawn) has an IC50 of 77.7 µM.
Compound `NC(=S)N/N=C/c1ccccc1OCCSc1ccc(Cl)cc1` has an IC50 of 74.7 µM.
Compound `COc1cccc(-c2nn3c(-c4ccccn4)nnc3s2)c1` has an IC50 of 33.4 µM.
`CCCCN(CC)CCCNC(=O)c1cc2cc3ccc(OC)cc3nc2o1` was tested, and the IC50 was 17.2 µM.
`Cc1cccc(C2=NNC(=O)C(c3ccc(Cl)cc3)C2)c1` (stereo not drawn) gave an IC50 of 34 µM.
In the case of `Fc1cccc(-c2cc3nc4c(c(NCc5ccco5)n3n2)CCCC4)c1`, the IC50 is reported as 33.7 µM.
With `CC(C)C[C@@H](CSc1ccc(Br)cc1)N1CCN(CC(C)C)CCC1=O` the IC50 was 25.9 µM.
With `Cc1ccc(S(=O)(=O)c2nc(S(C)(=O)=O)sc2N2CCCCC2C)cc1` (stereo not drawn) the IC50 was 7.08 µM.
For `COC(=O)COc1ccc(S(=O)(=O)N2CCN(c3ccccc3F)CC2)cc1C`, the IC50 was > 100 µM (inactive).
With `CSc1nc(N)nc(-c2cccs2)c1C#N` the IC50 was 32.5 µM.
`CCCOc1ccc(N2C(=O)CC(N3CCC(O)(c4cccc(C(F)(F)F)c4)CC3)C2=O)cc1` (stereo not drawn) showed an IC50 of 13 µM.
In the case of `Cc1ccc(NC(=O)c2cc(S(=O)(=O)NCCC3=CCCCC3)ccc2F)cc1`, the IC50 is reported as 10.8 µM.
For `O=C(c1cc(COc2ccc(F)cc2Cl)on1)N1CCN(c2cnccn2)CC1`, the IC50 was 11.7 µM.
`CCOC(=O)C1CCN(C(=O)c2oc3ccc4c(c3c2C)C(O)CC2(CCCCC2)O4)CC1` (stereo not drawn) gave an IC50 of 26 µM.
With `COc1ccccc1N1CCN(CC(=O)Nc2ccc(Cl)c(C(F)(F)F)c2)CC1` the IC50 was 58.7 µM.
Compound `COc1ccc2cc3cc(C(=O)NCCN4CCN(Cc5ccccc5)CC4)oc3nc2c1` has an IC50 of 27.9 µM.
`CCc1c(C)c2c(C)nn(-c3ccccc3)c2oc1=O` showed an IC50 of 17.2 µM.
For `Cc1nc(Nc2ccccc2)sc1-c1ccccc1`, the IC50 was 11.9 µM.
With `COc1ccc(OCC(=O)Nc2ccc(S(=O)(=O)N3CCCCC3)cc2)cc1` the IC50 was 36.4 µM.
In the case of `CCOc1ccccc1N1C(=O)CC(Sc2n[nH]c(-c3ccccc3)n2)C1=O` (stereo not drawn), the IC50 is reported as 10.6 µM.
With `O=C1C2C3C=CC(CO)(O3)C2C(=O)N1c1ccccc1-c1ccccc1` (stereo not drawn) the IC50 was 4.92 µM.
`CCCc1cc(-c2nc(-c3ccc(C)cc3)cs2)ccn1` showed an IC50 of 49.7 µM.
For `CN1CCN(c2ccccc2NC(=O)c2ccc(-c3cccc(Cl)c3)o2)CC1`, the IC50 was 21.4 µM.
Work on `CCCCN1/C(=C/c2ccc3ccccc3[n+]2CC)Sc2ccccc21` yielded an IC50 of 19.2 µM.
Work on `CN(C)CCCN(C(=O)c1ccc(S(=O)(=O)N2CCc3ccccc3C2)cc1)c1nc2c(F)cc(F)cc2s1` yielded an IC50 of 35.2 µM.
`CC(CC(=O)Nc1ncc([N+](=O)[O-])s1)c1ccccc1` (stereo not drawn) showed an IC50 of 18.5 µM.
With `CCCOc1ccc(CN(CCC#N)C(=S)NC(=O)c2ccccc2)cc1` the IC50 was 10.9 µM.
`Clc1ccc(Cn2c(/C=C/c3ccco3)nc3ccccc32)cc1` gave an IC50 of 45.7 µM.
`C/C(=N\OC(=O)NC(C)C)c1sc(-c2ccc(Cl)cc2)nc1C` gave an IC50 of 33.5 µM.
`COc1c(/C=C2\SC(=Nc3ccccc3Cl)NC2=O)cccc1[N+](=O)[O-]` gave an IC50 of 22.5 µM.
For `COc1ccc(-c2noc(C3CCCN(C(=O)CCc4ccccc4)C3)n2)cc1` (stereo not drawn), the IC50 was 17.9 µM.
Compound `N/C(Cc1ccc(Cl)cc1)=N\OC(=O)c1ccc2ccccc2c1` has an IC50 of 0.25 µM.
With `COc1ccc(C)c2sc(N3CCCC3)nc12` the IC50 was 21.7 µM.
`Cn1ncc2c(Nc3cccc(Cl)c3)nc(Nc3cccc(Cl)c3)nc21` showed an IC50 of 24.4 µM.
In the case of `CCOC(=O)N1CCN(S(=O)(=O)c2ccc(C(=O)N(CCN(CC)CC)c3nc4ccc(C)cc4s3)cc2)CC1`, the IC50 is reported as 60.8 µM.
`CC(=O)/C(=N\Nc1ccc(Cl)cc1Cl)Sc1cccc2cccnc12` gave an IC50 of 41.3 µM.
`C=Cc1ncc(OC)c2c1[nH]c1ccccc12` was tested, and the IC50 was 25 µM.
With `Cc1cc(NC(=O)c2ccccc2Oc2ccccc2)no1` the IC50 was 60.3 µM.
`Cc1cc(C)n(CC(O)Cn2c3ccc(Br)cc3c3cc(Br)ccc32)c(=O)n1` (stereo not drawn) gave an IC50 of 19.3 µM.
With `O=C(Cc1ccccc1)N/N=C/c1ccc2cccc(O)c2n1` the IC50 was > 100 µM (inactive).
`O=C(N/N=C/c1ccc[nH]1)c1cc(-c2ccc(Cl)cc2)nc2ccccc12` gave an IC50 of 10.1 µM.
With `CCC(Oc1ccccc1)C(=O)Nc1ncc([N+](=O)[O-])s1` (stereo not drawn) the IC50 was 18.3 µM.
Compound `COc1ccc(N2C(=O)CC(Sc3nnc(-c4ccccc4)o3)C2=O)cc1` (stereo not drawn) has an IC50 of 47.2 µM.
`CCOC(=O)Cc1nnc2c(Nc3ccc(Cl)cc3)nc3nonc3n12` showed an IC50 of 41.1 µM.
In the case of `COc1ccc(N2CCN(C(=O)Nc3cccc(C(F)(F)F)c3)CC2)cc1`, the IC50 is reported as 29.1 µM.
`Clc1cccc(CN2CCc3c([nH]c4ccccc34)C2)c1` was tested, and the IC50 was 30.7 µM.
For `OC(COc1ccccc1)Cn1c2ccccc2c2ccccc21` (stereo not drawn), the IC50 was 29.4 µM.
In the case of `N/C(=C\C(=O)c1cc(Cl)ccc1O)C(Cl)(Cl)Cl`, the IC50 is reported as 47.3 µM.
For `C=CCN(C(=O)c1cccc(S(=O)(=O)N2CCN(C)CC2)c1)c1nc(-c2ccccc2)cs1`, the IC50 was 46.8 µM.
Compound `COc1ccc2sc(-c3ccc(S(C)(=O)=O)cc3)c(C#CCO)c2c1` has an IC50 of 24.2 µM.
In the case of `Brc1ccc(-c2cn3c(n2)CCc2ccc4cccnc4c2-3)cc1`, the IC50 is reported as > 100 µM (inactive).
With `O=C(Nc1ccc(Cl)c(C(F)(F)F)c1)c1ccco1` the IC50 was 28.7 µM.
`O=C(Nc1ccc(OCC(F)(F)C(F)F)c(C(F)(F)F)c1)c1ccc(Cl)cc1` showed an IC50 of 52.8 µM.
`O=C(Nc1ccc(C(=O)N2CCN(c3ccc(F)cc3)CC2)cc1)C1=CSCCO1` gave an IC50 of 44.3 µM.
Compound `CCCN(CC1COc2ccccc2O1)C(=S)Nc1ccc(C)cc1` (stereo not drawn) has an IC50 of 33.5 µM.
Work on `Cn1ncc2c(Nc3ccc(Br)cc3)nc(Nc3ccc(Br)cc3)nc21` yielded an IC50 of 18.7 µM.
For `CN(C)S(=O)(=O)c1cccc(NC(=O)COc2cccc3ccccc23)c1`, the IC50 was > 100 µM (inactive).
`COc1ccc(Cn2c(-c3ccc(Br)cc3)c[n+]3ccccc23)cc1` showed an IC50 of 37.8 µM.
